Measured values published in paper PMC10065799, “High-throughput profiling of sequence recognition by tyrosine kinases and SH2 domains using bacterial peptide display” (eLife, 2023).
Blank lines part the entries; values can stand above or below the substance they belong to. Square brackets hold non-standard residues; d marks the D form. pY = N[C@@H](Cc1ccc(OP(=O)(O)O)cc1)C(=O)O

Assays:
Test in all cases: pTyr-Var library bacterial peptide display kinase screen (enrichment scores)
[1] = molecular target: T1, c-Abl kinase domain (Mus musculus, UniProt P00520); assay type: biochemical;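 further: log2 fold change in enrichment of variant over reference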
T1 sequence (P00520 242-493 limits assumed): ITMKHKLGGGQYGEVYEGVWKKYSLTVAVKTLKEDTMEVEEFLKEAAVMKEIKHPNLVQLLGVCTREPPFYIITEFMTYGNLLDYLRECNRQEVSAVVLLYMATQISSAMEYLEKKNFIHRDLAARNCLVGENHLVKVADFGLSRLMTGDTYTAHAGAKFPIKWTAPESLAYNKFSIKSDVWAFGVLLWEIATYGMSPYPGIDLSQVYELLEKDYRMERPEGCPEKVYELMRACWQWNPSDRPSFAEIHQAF

[2] = tested on: EPHB1 kinase domain; assay type: biochemical, human; conditions: for Screen: sheet EPHB1, effect of the variant peptide relative to its reference peptide in the pTyr-Var library screen (enrichment scores); for Screen (variant relative to reference peptide, measured in the pTyr-Var library screen): sheet "EPHB1", variant seq vs reference seq, bacterial peptide display enrichment
[3] = molecular target: c-Src kinase domain (Homo sapiens, UniProt P12931); assay type: biochemical; conditions: sheet "Src";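 further: log2 fold change in enrichment of variant over reference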
[4] = tested on: Fer kinase domain; assay type: biochemical, mouse; conditions: sheet "Fer";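 further: log2 fold change in enrichment of variant over reference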
[5] = tested on: EPHB2 kinase domain; assay type: biochemical, human; conditions: sheet EPHB2; effect of variant peptide relative to its reference peptide in the pTyr-Var library screen (enrichment scores);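 further: log2 fold change in enrichment of variant over reference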
[6] = fig5-data2, sheet "Abl", Screen for the variant/reference peptide pair, pTyr-Var library
[7] = variant peptide versus its reference peptide in the pTyr-Var library screen
[8] = sheet "Abl", effect of variant peptide relative to its reference peptide in pTyr-Var library screen (enrichment)
[9] = value of the variant peptide against its reference peptide in the pTyr-Var library screen with Fer
[10] = effect of the variant peptide relative to its reference peptide in the pTyr-Var library screen

Substance: NSFKFYMSDDI [ATRX_Y204_C200S_YF]
Screen [1, 6]: 1.883

Substance: AVEDQYFRVDC [FHL1_Y207_C209R_YF]
Screen [1, 6]: -2.172

Substance: PVQAAYQKLVA [HBB_Y131_V134L]
Screen [1, 6]: -1.01

Substance: LIFTNYEVGKD [GSTP1_Y112_A114V_YF]
Screen [2]: 1.043

Substance: PLDGEYFTLQV [TP53_Y327_I332V]
Screen [3, 7]: -0.8668
Screen (variant relative to reference peptide, measured in the pTyr-Var library screen) [2]: -0.1216

Substance: MSRDVYSTDCF [NTRK2_Y702_Y706C_YF]
Screen [3, 7]: -0.1963

Substance: GRTGHYLCNAC [GATA1_Y223_D218G]
Screen [1, 6]: 0.2005

Substance: RREWFYEVIIA [BACE1_Y260_V265A_YF]
Screen [4, 9]: -1.406

Substance: ADARMYGVHPW [PLP1_Y207_L210H]
Screen [5]: -2.321
Screen [3, 7]: -0.8602

Substance: DNLSNYVFQGQ [GRIN2A_Y978_N976S]
Screen [2]: 0.2649

Substance: VMAALYGRLFE [BTD_Y536_T532M_YF]
Screen [3, 10]: 0.294
Screen [1, 6]: -0.5848

Substance: FRTGHYLCNAC [GATA1_Y223_D218Y_YF]
Screen [1, 6]: 1.235

Substance: WCSNDYLGMSQ [ALAS2_Y199_R204Q]
Screen [2]: 0.6712

Substance: KKHIPYSEHKS [CSNK1G2_Y206_R207S]
Screen [4, 9]: -1.379
Screen [2]: -1.865

Substance: REGAKYVSHDA [ASS1_Y113_G117D]
Screen [1, 6]: 1.12

Substance: LTMAPYSSVSV [FAM81A_Y24_L29V]
Screen [4, 9]: 0.5529

Substance: GRSTFYWPSPR [GAGE12J_Y10_R13S_YF]
Screen [1, 6]: -1.338

Substance: ETELPYQELQG [TYROBP_Y91_S89L]
Screen [3, 7]: 0.7128

Substance: DWQQEYVLNES [TGM1_Y267_R264Q]
Screen [3, 7]: 1.018

Substance: PNKAVYTKMMT [G6PD_Y401_E398K]
Screen [3, 10]: -2.964
Screen [4, 9]: -3.207

Substance: ACCLLYHGDVV [TUBA4A_Y319_R320H]
Screen [3, 7]: -0.1128
Screen ([4]; variant peptide relative to its reference peptide, pTyr-Var library screen enrichment): 1.239

Substance: EGNEQYEGFCV [GRIA3_Y451_R450Q_YF]
Screen [4, 9]: 2.326

Substance: KLPDAYEPLIL [G6PD_Y437_R439P]
Screen [4, 9]: 1.978

Substance: TDHLQYFDSNK [ARAP1_Y359_R358Q]
Screen [1, 6]: 1.336

Substance: GPQSLYNGLVA [UCP2_Y79_R76Q]
Screen [3, 7]: 1.82

Substance: LNECHYGALIG [BPGM_Y92_R90C]
Screen [3, 10]: 2.509

Substance: GHLFAYNWISI [BEST1_Y227_D228N_YF]
Screen [4, 9]: -1.638

Substance: DTLLEYLENPK [CYCS_Y68_M66L]
Screen [1, 6]: -1.313

Substance: KGNMFYENSFA [EGFR_Y113_R108K_YF]
Screen [4, 9]: -0.4996

Substance: GNLLIYTKFGK [HGD_Y166_E168K]
Screen [3, 10]: -1.556
Screen [1, 6]: 0.592
Screen [2]: -0.9666

Substance: SNKLTYGTVVF [ACOX1_Y275_M278V]
Screen [3, 10]: 0.3111

Now from value to substance:

Screen [1, 6]: -1.856
Substance: Ac-QSLEKS[pY]ELLDGG-NH2 [ACTB_Y240_P243L]

Screen [1, 6]: 0.7733
Substance: PMQMPYDSRWE [PDGFRA_Y582_L580M]

Screen [1, 8]: -1.764
Substance: LTDLRYKVSGP [TTN_Y22641_L22646P]

Screen [1, 8]: 1.322
Screen (variant relative to reference peptide, measured in the pTyr-Var library screen) [2]: -0.1665
Substance: KKFPDYIQIAR [SGMS2_Y59_M64R_YF]

Screen [1, 8]: -3.327
Substance: VLALWYFFLTN [ZDHHC23_Y127_H132N_YF]

Screen [1, 8]: 4.539
Substance: KNSSIYVVANI [VNN1_Y134_N131S]

Screen [1, 8]: -0.1763
Substance: KPGLIYNKVNP [SPRED3_Y72_V71I]

Screen [1, 6]: 1.131
Screen [4, 9]: -0.9977
Substance: MSSLFYANALF [HOXB7_Y6_T9A_YF]

Screen [1, 8]: -0.666
Substance: ETCLAYMEKRI [TEKT1_Y118_R119M]

Screen [1, 6]: -0.5192
Substance: DLAHKYHGGGG [HBB_Y146_A141D]

Screen [5]: -2.259
Substance: FCRHNYGAVES [HLA-DRB1_Y112_V114A_YF]

Screen [1, 8]: -3.546
Substance: KACKHYLTKRT [ZBTB5_Y118_T121K]

Screen [1, 8]: 0.2086
Substance: ESMQSYDLDFP [UNC13B_Y243_D238E_YF]

Screen [1, 6]: 1.901
Substance: SLMNQYVNKEF [RAB7A_Y28_K32E]

Screen [1, 6]: 0.4242
Substance: SHSMRYFSTAV [HLA-C_Y31_D33S]

Screen [1, 8]: 1.136
Substance: FNDSAYNQQLI [ZPLD1_Y198_T197A_YF]

Screen [5]: -0.9943
Substance: ADRLEYSRTGL [MMUT_Y287_G284R]

Screen [1, 8]: 2.42
Substance: MKGEFYRFLAE [YWHAG_Y131_D129E_YF]

Screen [1, 6]: -0.6801
Substance: AGQEGYDRLRP [RAC1_Y64_D63G]

Screen [1, 6]: -1.003
Substance: KFFRVYQGQQP [MUTYH_Y494_V490F]
